# Results reported in patent US20040014653A1, “Peptide composition” (priority 2000, published 2004).
# System: Human keratinocytes (HatKat)
# Experiment: Growth of keratinocytes, cell count in Coulter counter after three days
# Type: cell-based
# Description: Human keratinocytes (HatKat) were grown in keratinocyte growth medium (TCS Cellworks Ltd.) until 20% confluence. Then, in the same medium, the keratinocytes were grown for three days with 0.5% foetal calf serum (FCS), at which point the cells were counted in a Coulter® counter. The cell numbers obtained are set out in Table 3 below.
substance,measurement,setting,value
"EGF: epidermal growth factor, comparator growth factor in keratinocyte growth test",increase in the growth of keratinocytes (in words),10 ng/mi EGF versus medium with 0.5% FCS,relatively modest increase
same,Number of cells,"Medium with 0.5% FCS + 10 ng/ml EGF, three days","29,356"
